Test: Dissolution of phenothiazine fixed bed in acetic acid (UV absorption at 390 nm)
Format: physicochemical
Details: saturation concentration
Description: The dissolution of phenothiazine in acetic acid according to the process according to the invention was investigated by experiment. FIG. 2 illustrates the relevant experimental setup.
A phenothiazine fixed bed is placed in a temperature-controllable chromatography column (Götec-Labor GmbH, Superformance 300-16, length 300 mm, internal diameter 16 mm, double-walled for thermostatting, 20 μm type F filter frit). Pump P-01 conveys acetic acid from the reservoir vessel through the fixed bed temperature-controlled to 20° C. into a waste vessel. Pump P-02 diverts a sample stream to the UV detector. The phenothiazine concentration is determined by absorption measurement at 390 nm. The detector is previously calibrated with a phenothiazine solution of known concentration.
A first experiment was performed with a flow rate of 12.4 cm/min at a volume flow of 25.0 ml/min. […] The measured detector extinction (dashed) periodically deviates from the concentration at the bed outlet since to protect the measuring cell from solids particles the solution was not passed through the detector upon startup. In the further course of the experiment calibration solutions were passed through the detector as a control. The “corrected bed outlet concentration” (solid curve beginning at a concentration of 0.000) was calculated over the experimental duration via linear interpolation and extrapolation. […]

c1ccc2c(c1)Nc1ccccc1S2 [phenothiazine]
Max conc (phenothiazine) (Experiment 1, fixed bed thermostatted 20.0 °C, flow rate 12.4 cm/min, volume flow 25.0 ml/min): 1.23 % by wt. | Max conc (phenothiazine) (Experiment 2, fixed bed thermostatted 20.0 °C, flow rate 11.0 cm/min, volume flow 22.2 ml/min): 1.22 % by wt.
